In this assay the test system is 186277-243-T-J2-PDC complex spheroid viability. Put plainly: Anticancer human tumor 186277-243-T-J2-PDC patient-derived colon adenocarcinoma cell line growth inhibition [GQUAD]. The conditions noted are these: for viability, T/C: stronger effect = lower value. The text has this:
DNA G-quadruplex Stabilizer Agents in Combinations in Complex Spheroids
A high-throughput screen of multi-cell type tumor spheroids was designed to identify active combinations of DNA G-quadruplex stabilizer agents and targeted small molecules. Complex spheroids include a stromal component modeled by human endothelial cells (HUVEC) and fibroblasts modeled by human mesenchymal stem cells (MSCs). The concentration ranges selected for each drug and investigational agent were based upon clinically achievable concentrations if the clinical Cmax of the agent was known.
Compounds. The drugs and investigational agents: pidnarulex (CX-5461; NSC782164), APTO-253 (NSC789042), BRACO-19 (NSC847499), peposertib (NSC802822), ceralasertib (NSC780249), elimusertib (NSC800525), camonsertib (NSC841442), AZD-1390 (NSC803789), olaparib (NSC753686), talazoparib (NSC767125), ART-558 (NSC835418), sotorasib (NSC818433), MRTX-1133 (NSC836407), SN-38 (NSC673596), topotecan (NSC609699), etoposide (NSC141540), doxorubicin (NSC123127), gemcitabine (NSC613327), 5-fluorouracil (NSC19893), paclitaxel (NSC125973), vemurafenib (NSC761431), panobinostat (NSC761190), R-306465 (JNJ-16241199; NSC773264), adavosertib (NSC754352), TP-3654 (NSC805149), carboplatin (NSC241240), KSQ-4279 (NSC840948), and staurosporine (NSC755774) were obtained from the National Cancer Institute (NCI) Developmental Therapeutics Program Chemical Repository (34). The FDA-approved anticancer drug set is available from the NCI Developmental Therapeutics Program. […] The stock solutions were prepared in dimethyl sulfoxide (DMSO, Sigma-Aldrich, St. Louis, MO, cat. D2650) at 800-fold the tested concentration and stored at -70 degrees C prior to their use. All drugs and investigational agents were tested over a range starting from a high concentration at or near the clinical Cmax and decreasing in half-log increments. If the clinical Cmax for an agent had not been determined, the highest concentration tested was 10 microM.
2.3 Cell Culture. All cells were maintained in an incubator at 37 degrees C and 5% CO2 with 95% humidity. The PDC lines were cultured according to standard operating procedures established by the NCI PDMR. All PDCs were thawed and cultured in Matrigel-coated flasks prepared with a working solution of 1X Ham's F-12 nutrient mix, without supplementation (Invitrogen, cat. 11765054), 100 U/mL penicillin-streptomycin (Invitrogen, cat. 15140122), and 2.5% Matrigel (Corning Inc., cat. 354248) for the first three passages. The 857933-349-R-J2-PDC line was cultured in 6C/Colon 1B media, which includes advanced DMEM/F-12 (Thermo Fisher Scientific, cat. 12634028), 10 mM HEPES (Thermo Fisher Scientific, cat. 15630080), 1X GlutaMAX supplement (Thermo Fisher Scientific, cat. 35050061), 0.1 mg/mL primocin (InvivoGen, cat. ant-pm-2), 10% defined fetal bovine serum, heat inactivated (HyClone Laboratories Inc., cat. SH30070.03HI), 50% L-WRN conditioned media (ATCC, cat. CRL-3276), 1.25 mM N-Acetyl-L-cysteine (Sigma-Aldrich, cat. A9165), 10 mM nicotinamide (Sigma-Aldrich, cat. N0636), 1X B-27 supplement (Thermo Fisher Scientific, cat. 17504044), 1X N-2 supplement (Thermo Fisher Scientific, cat. 17502048), 10 microM Y-27632 dihydrochloride (Tocris Bioscience, cat. 1254), and 50 ng/mL human EGF recombinant protein (Thermo Fisher Scientific, cat. PHG0311). The 485176-168-R4-J1-PDC line was cultured in Panc media, which includes all 6C/Colon 1B media components plus 100 ng/mL human FGF-10 (Thermo Fisher Scientific, cat. 100-26), 500 nM SB-431542 (Selleckchem, cat. S1067), and gastrin (Tocris, cat. 3006).
[…]

The mark [1] stands for this setting: compound alone, run of 04/16/2024.

Values joined by “and” are separate entries in the source; they are usually repeats but may differ in a detail not shown here. Equal entries are not always repeated.
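Also: spheroids exposed to drugs for 7 days.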

For the compound `COc1cc(C2c3cc4c(cc3C(OC3OC5COC(C)OC5C(O)C3O)C3COC(=O)C23)OCO4)cc(OC)c1O` (stereo unspecified), the viability, T/C (usually the ratio of treated to control) reads like this: (compound 0.0316 µM) 103% and 110% and 100%; (compound 0.1 µM) 100% and 101% and 85.4%; (compound 0.316 µM) 102% and 83.6% and 82.1%; (compound 1 µM) 72.1% and 50.7% and 50%; (compound 3.16 µM) 52.7% and 37% and 36.2%; (compound 10 µM) 19.4% and 20.9% and 16.9%. Besides, the IC50 (as a rule, the concentration that inhibits the measured activity by half) (curve of compound) is 3.13 µM and 1.27 µM and 1.31 µM.
Take `COc1ccc([C@@H](O)c2cc(-c3ncnc4cc(N5CCOCC5)ccc34)c(F)cc2Cl)nn1`: the viability, T/C was 97.6% and 103% (2×) (compound 0.0316 µM); 84.1% and 107% and 101% (compound 0.1 µM); 115% and 112% and 97.2% (compound 0.316 µM); 95.7% and 90.8% and 108% (compound 1 µM); 63% and 66.2% and 70% (compound 3.16 µM); 41.8% and 24.9% and 33.5% (compound 10 µM). The IC50 (curve of compound) was 6.4 µM and 4.88 µM and 5.94 µM.
For the compound `COc1cccc2c1C(=O)c1c(O)c3c(c(O)c1C2=O)CC(O)(C(=O)CO)CC3OC1CC(N)C(O)C(C)O1` (stereo unspecified), the viability, T/C runs as follows: (compound 0.0316 µM) 108% and 97.9% and 88.6%; (compound 0.1 µM) 117% and 91.2% and 90.2%; (compound 0.316 µM) 83.2% and 57.1% and 66.7%; (compound 1 µM) 29.7% and 15.8% and 22.8%; (compound 3.16 µM) 4.47% and 0.22% and 0.3%; (compound 10 µM) 0.23% and 0.19% and 0.13%. In addition, under “curve of compound”, the IC50 was 0.649 µM and 0.388 µM and 0.494 µM.
`Cc1[nH]c2ccc(F)cc2c1-c1nc2c3cccnc3c3ncccc3c2[nH]1`: the viability, T/C was 100% [middle of 12 runs] (compound 0.0316 µM); 101% [middle of 12 runs] (compound 0.1 µM); 107% [middle of 12 runs] (compound 1 µM); 98.9% [middle of 12 runs] (compound 3.16 µM); 92.4% [middle of 12 runs] (compound 10 µM). Further, the IC50 runs as follows: under setting [1], > 10 µM; (compound alone, run of 04/22/2024) > 10 µM.
With `Cc1[nH]c2ccccc2c1CCNCc1ccc(/C=C/C(=O)NO)cc1`, the viability, T/C (compound 0.000999 µM) was 107% and 92.7% and 99%; the viability, T/C (compound 0.00316 µM) is 89.4% and 96.9% and 90%; the viability, T/C (compound 0.00999 µM) is 92.2% and 94.9% and 101%; the viability, T/C (compound 0.0316 µM) was 60% and 92.1% and 97.2%; the viability, T/C (compound 0.0999 µM) was 18.4% and 8.39% and 19.1%; the viability, T/C (compound 0.316 µM) is 0.49% and 2.16% and 2.64%. The IC50 (curve of compound) was 0.0419 µM and 0.0564 µM and 0.0632 µM.
As to `Cc1cccc(N(C)C(=O)C2C(O)CCN2c2nc(C)cc(C(F)(F)F)c2C#N)c1` (stereo unspecified), the viability, T/C by setting is: (compound 0.0316 µM) 109% and 93.9% and 95.1%; (compound 0.1 µM) 91% and 94.3% and 102%; (compound 0.316 µM) 95.7% and 97.1% and 115%; (compound 1 µM) 102% and 99.7% and 99.6%; (compound 3.16 µM) 116% and 97.7% and 102%; (compound 10 µM) 102% and 104% and 91.5%. The IC50 (curve of compound) is > 10 µM.
With `Cc1cnc(CNC(=O)c2c(=O)c3ccc(N4CCCN(C)CC4)nc3n3c2sc2ccccc23)cn1`, the viability, T/C (compound 0.0316 µM) was 97.7% [middle of 12 runs]; the viability, T/C (compound 0.316 µM) is 76.8% [middle of 12 runs]; the viability, T/C (compound 1 µM) is 61.5% [middle of 12 runs]; the viability, T/C (compound 3.16 µM) is 43.7% [middle of 12 runs]; the viability, T/C (compound 10 µM) was 39.7% [middle of 12 runs]. Also, the IC50 under setting [1] is 2.36 µM [middle of 12 runs].
For `Cn1ncnc1[C@H]1c2n[nH]c(=O)c3cc(F)cc(c23)N[C@@H]1c1ccc(F)cc1`, the viability, T/C was 99.3% and 96.1% and 115% (compound 0.000999 µM); 93.5% and 96.6% and 91% (compound 0.00316 µM); 94.1% and 100% and 98.4% (compound 0.00999 µM); 111% and 110% and 97.4% (compound 0.0316 µM); 87.5% and 91.4% and 106% (compound 0.0999 µM); 92.4% and 86.5% and 90.8% (compound 0.316 µM). Further, where the note is “curve of compound”, the IC50 was > 0.316 µM.
For `Nc1ccn(C2OC(CO)C(O)C2(F)F)c(=O)n1` (stereo unspecified), the viability, T/C by setting is: (compound 0.0316 µM) 17% and 8.09% and 31%; (compound 0.1 µM) 11.1% and 8.48% and 13.3%; (compound 0.316 µM) 11.3% and 9.27% and 10.2%; (compound 1 µM) 11.5% and 8.56% and 11.1%; (compound 3.16 µM) 12.8% and 8.21% and 8.72%; (compound 10 µM) 10.8% and 8.32% and 10.6%. Under “curve of compound”, the IC50 is < 0.0316 µM.
Turning to `O=C(c1cc(Cc2n[nH]c(=O)c3ccccc23)ccc1F)N1CCN(C(=O)C2CC2)CC1`, the viability, T/C (compound 0.0316 µM) was 102% and 105% and 100%; the viability, T/C (compound 0.1 µM) was 108% (2×) and 94.6%; the viability, T/C (compound 0.316 µM) is 96.4% and 112% and 87.3%; the viability, T/C (compound 1 µM) was 94.3% and 104% and 77.3%; the viability, T/C (compound 3.16 µM) was 93.3% and 92% and 82.2%; the viability, T/C (compound 10 µM) was 62.3% and 64.2% and 66.5%. The IC50 (curve of compound) was > 10 µM.
Regarding `O=c1[nH]cc(F)c(=O)[nH]1`, the viability, T/C is 94.6% and 93.4% and 110% (compound 0.0316 µM); 94.9% and 95.8% and 93.8% (compound 0.1 µM); 104% and 108% and 112% (compound 0.316 µM); 97.6% and 114% and 107% (compound 1 µM); 62.5% and 75.2% and 60.1% (compound 3.16 µM); 39.6% and 52.2% and 50.6% (compound 10 µM). The IC50 (curve of compound) is 5.94 µM and > 10 µM.
